From US9353072B2, “Antimicrobial substituted thiazoles and methods of use” (Purdue Research Foundation, priority 2012, dated 2016)
≈ marks a conversion by molar mass, not a printed value. Like-named read-outs stand apart in the source and are kept apart here. Each block holds one molecule with its values, some of them ahead of it.

Columns and labels:
MRSA ATCC 43300 = experiment: MIC/MBC broth microdilution, MRSA ATCC 43300; assay type: cell-based, Staphylococcus aureus; settings: Staphylococcus aureus
Method: (§1) Determination of minimum inhibitory concentration (MIC). The MICs of the lead thiazole compound (compound 1a) and nine derivatives tested against all 18 MRSA strains were determined, in triplicate samples, using the broth microdilution method in accordance with the recommendations contained in the CLSI guidelines.

[1] = test system: MRSA ATCC 700699 (NRS1, VISA); experiment: MIC/MBC broth microdilution, NRS1 (ATCC 700699); assay type: cell-based; settings: Staphylococcus aureus
Method: as §1

VISA HIP07256 (NRS19) = experiment: MIC/MBC broth microdilution, NRS19 (VISA HIP07256); assay type: cell-based; settings: Staphylococcus aureus
Method: as §1

VISA LIM 3 (NRS37) = experiment: MIC/MBC broth microdilution, NRS37 (VISA LIM 3); assay type: cell-based; settings: Staphylococcus aureus
Method: as §1

NRS107 = experiment: MIC/MBC broth microdilution, NRS107; assay type: cell-based; settings: Staphylococcus aureus
Method: as §1

NRS119 = experiment: MIC/MBC broth microdilution, NRS119; assay type: cell-based; settings: Staphylococcus aureus
Method: as §1

MRSA USA400 (NRS123) = experiment: MIC/MBC broth microdilution, NRS123 (USA400); assay type: cell-based; settings: Staphylococcus aureus
Method: as §1

NRS194 = experiment: MIC/MBC broth microdilution, NRS194; assay type: cell-based; settings: Staphylococcus aureus
Method: as §1

MRSA NRS384 (USA300) = experiment: MIC/MBC broth microdilution, NRS384 (USA300); assay type: cell-based; settings: Staphylococcus aureus
Method: as §1

MRSA USA500 (NRS385) = experiment: MIC/MBC broth microdilution, NRS385 (USA500); assay type: cell-based; settings: Staphylococcus aureus
Method: as §1

VRSA (VRS10) = experiment: MIC/MBC broth microdilution, VRSA (VRS10); assay type: cell-based, Staphylococcus aureus; settings: Staphylococcus aureus; for MBC: read-out: Minimum Bactericidal Concentration; for MIC: read-out: Minimum Inhibitory Concentration
Method: as §1

MRSA USA100 = experiment: MIC broth microdilution, MRSA USA100; assay type: cell-based; settings: Staphylococcus aureus, read-out: Minimum Inhibitory Concentration
Method: as §1

MRSA USA200 = experiment: MIC broth microdilution, MRSA USA200; assay type: cell-based; settings: Staphylococcus aureus, read-out: Minimum Inhibitory Concentration
Method: as §1

MRSA (USA300) = experiment: Time-kill assay; assay type: cell-based, Staphylococcus aureus; settings: 3.0×MIC; MRSA (USA300)
Method: Time-kill assay. […] Viable CFU/mL was determined by serial dilution and plating on trypticase soy agar (TSA) (Becton, Dickinson and Company, Sparks, Md., USA) plates after 0, 2, 4, 6, 8, 10, and 12 hours of incubation at 37° C. to identify the time required to reduce the bacterial cell count by 3-log10.

[2] = read-out: Minimum Bactericidal Concentration
[3] = read-out: Minimum Inhibitory Concentration
[4] = NRS 119 / VISA, read-out: Minimum Inhibitory Concentration

MIC (MRSA ATCC 43300; Table 6, MRSA ATCC 43300, 128 μM down to 1.0 μM, 20 hours, read-out: MIC): 4 µM (≈ 1.6 µg/mL)
MIC (MRSA ATCC 43300; Table 7, MRSA (ATCC 43300), read-out: Minimum Inhibitory Concentration): 8 µM (≈ 3.2 µg/mL)
MIC (MRSA ATCC 43300; Table 8, ATCC 43300, read-out: MIC): 4 µM (≈ 1.6 µg/mL)
MIC ([1]; Table 7, VISA (NRS1), read-out: Minimum Inhibitory Concentration): 2 µM (≈ 0.799 µg/mL)
MIC ([1]; Table 8, NRS1 (VISA), triplicates, 20 hours, read-out: MIC): 4 µM (≈ 1.6 µg/mL)
MIC (VISA HIP07256 (NRS19); Table 8, NRS19 (VISA), read-out: MIC): 4 µM (≈ 1.6 µg/mL)
MIC (VISA LIM 3 (NRS37); Table 8, NRS37 (VISA), read-out: MIC): 4 µM (≈ 1.6 µg/mL)
MIC (NRS107; Table 8, read-out: MIC): 4 µM (≈ 1.6 µg/mL)
MIC (NRS119; NRS 119 / VISA, Table 7, VISA (NRS119), read-out: Minimum Inhibitory Concentration): 4 µM
MIC (NRS119; Table 8, NRS119, read-out: MIC): 4 µM
MIC (MRSA USA400 (NRS123); Table 8, NRS123, read-out: MIC): 4 µM (≈ 1.6 µg/mL)
MIC (NRS194; Table 8, read-out: MIC): 4 µM (≈ 1.6 µg/mL)
MIC (MRSA NRS384 (USA300); Table 8, NRS384, read-out: MIC): 4 µM (≈ 1.6 µg/mL)
MIC (MRSA USA500 (NRS385); Table 8, NRS385, read-out: MIC): 4 µM (≈ 1.6 µg/mL)
MIC (VRSA (VRS10); Table 7, VRSA (VRS10)): 8 µM (≈ 3.2 µg/mL)
SMILES: C/C(=N/NC(=N)N)c1sc(-c2ccc(-c3cccc4ccccc34)cc2)nc1C [Compound M14]
MBC (MRSA ATCC 43300; Table 6, MRSA ATCC 43300, plating on TSA, 20 hour incubation, read-out: MBC): 8 µM (≈ 3.2 µg/mL)
MBC (MRSA ATCC 43300; Table 7, MRSA (ATCC 43300), read-out: Minimum Bactericidal Concentration): 16 µM (≈ 6.39 µg/mL)
MBC (MRSA ATCC 43300; Table 8, ATCC 43300, read-out: MBC): 4 µM (≈ 1.6 µg/mL)
MBC ([1]; Table 7, VISA (NRS1), read-out: Minimum Bactericidal Concentration): 4 µM (≈ 1.6 µg/mL)
MBC ([1]; Table 8, NRS1 (VISA), read-out: MBC): 4 µM (≈ 1.6 µg/mL)
MBC (VISA HIP07256 (NRS19); Table 8, NRS19 (VISA), read-out: MBC): 4 µM (≈ 1.6 µg/mL)
MBC (VISA LIM 3 (NRS37); Table 8, NRS37 (VISA), read-out: MBC): 4 µM (≈ 1.6 µg/mL)
MBC (NRS107; Table 8, read-out: MBC): 4 µM (≈ 1.6 µg/mL)
MBC (NRS119; NRS 119 / VISA, Table 7, VISA (NRS119), read-out: Minimum Bactericidal Concentration): 16 µM (≈ 6.39 µg/mL)
MBC (NRS119; Table 8, NRS119, read-out: MBC): 4 µM (≈ 1.6 µg/mL)
MBC (MRSA USA400 (NRS123); Table 8, NRS123, read-out: MBC): 4 µM (≈ 1.6 µg/mL)
MBC (NRS194; Table 8, read-out: MBC): 4 µM (≈ 1.6 µg/mL)
MBC (MRSA NRS384 (USA300); Table 8, NRS384, read-out: MBC): 4 µM (≈ 1.6 µg/mL)
MBC (MRSA USA500 (NRS385); Table 8, NRS385, read-out: MBC): 8 µM (≈ 3.2 µg/mL)
MBC (VRSA (VRS10); Table 7, VRSA (VRS10)): 8 µM (≈ 3.2 µg/mL)

SMILES: C/C(=N\NC(=N)N)c1sc(-c2cccc(F)c2)nc1C [Compound M16, (E)-2-(1-(2-(3-fluorophenyl)-4-methylthiazol-5-yl)ethylidene)hydrazinecarboximidamide]
MBC (MRSA ATCC 43300): 128 µM (≈ 37.3 µg/mL)
MIC (MRSA ATCC 43300): 128 µM (≈ 37.3 µg/mL)
MIC (MRSA ATCC 43300; 20 h): 32 µM (≈ 9.32 µg/mL)
MBC (MRSA ATCC 43300; [2]): 64 µM (≈ 18.6 µg/mL)
MIC (MRSA ATCC 43300; [3]): 32 µM (≈ 9.32 µg/mL)
MBC [1]: 128 µM (≈ 37.3 µg/mL)
MIC ([1]; 20 h): 128 µM (≈ 37.3 µg/mL)
MBC [1, 2]: 64 µM (≈ 18.6 µg/mL)
MIC [1, 3]: 32 µM (≈ 9.32 µg/mL)
MBC (VISA HIP07256 (NRS19)): 128 µM (≈ 37.3 µg/mL)
MIC (VISA HIP07256 (NRS19)): 128 µM (≈ 37.3 µg/mL)
MBC (VISA LIM 3 (NRS37)): 128 µM (≈ 37.3 µg/mL)
MIC (VISA LIM 3 (NRS37)): 128 µM (≈ 37.3 µg/mL)
MBC (NRS107): 128 µM (≈ 37.3 µg/mL)
MIC (NRS107): 128 µM (≈ 37.3 µg/mL)
MBC (NRS119; NRS119): 128 µM (≈ 37.3 µg/mL)
MIC (NRS119; NRS119): 128 µM
MBC (NRS119; NRS 119 / VISA, read-out: Minimum Bactericidal Concentration): 64 µM (≈ 18.6 µg/mL)
MIC (NRS119; [4]): 64 µM
MBC (MRSA USA400 (NRS123)): 128 µM (≈ 37.3 µg/mL)
MIC (MRSA USA400 (NRS123)): 128 µM (≈ 37.3 µg/mL)
MBC (NRS194): 128 µM (≈ 37.3 µg/mL)
MIC (NRS194): 128 µM (≈ 37.3 µg/mL)
MBC (MRSA NRS384 (USA300)): 128 µM (≈ 37.3 µg/mL)
MIC (MRSA NRS384 (USA300)): 128 µM (≈ 37.3 µg/mL)
MBC (MRSA USA500 (NRS385)): 128 µM (≈ 37.3 µg/mL)
MIC (MRSA USA500 (NRS385)): 128 µM (≈ 37.3 µg/mL)
MBC (VRSA (VRS10); VRSA): 128 µM (≈ 37.3 µg/mL)
MIC (VRSA (VRS10); VRSA): 32 µM (≈ 9.32 µg/mL)

SMILES: CN[C@H](CC(C)C)C(=O)N[C@H]1C(=O)N[C@@H](CC(N)=O)C(=O)N[C@H]2C(=O)N[C@H]3C(=O)N[C@H](C(=O)N[C@H](C(=O)O)c4cc(O)cc(O)c4-c4cc3ccc4O)[C@H](O)c3ccc(c(Cl)c3)Oc3cc2cc(c3O[C@@H]2O[C@H](CO)[C@@H](O)[C@H](O)[C@H]2O[C@H]2C[C@](C)(N)[C@H](O)[C@H](C)O2)Oc2ccc(cc2Cl)[C@H]1O [Vancomycin, reference compound]
MBC (MRSA ATCC 43300): 0.5 µM (≈ 0.725 µg/mL)
MIC (MRSA ATCC 43300): 0.5 µM (≈ 0.725 µg/mL)
MIC (MRSA ATCC 43300; [3]): < 1 µM
MBC [1]: 2 µM (≈ 2.9 µg/mL)
MBC (VISA HIP07256 (NRS19)): < 1 µM
MIC (VISA HIP07256 (NRS19)): < 1 µM
MBC (VISA LIM 3 (NRS37)): 2 µM (≈ 2.9 µg/mL)
MBC (NRS107): < 1 µM
MIC (NRS107): < 1 µM
MBC (NRS119; NRS119): < 1 µM
MIC (NRS119; NRS119): < 1 µM
MIC (NRS119; NRS119, read-out: Minimum Inhibitory Concentration): 1.4 µg/mL
MIC (NRS119; [4]): < 1 µM
MBC (MRSA USA400 (NRS123)): 0.5 µM (≈ 0.725 µg/mL)
MIC (MRSA USA400 (NRS123)): 0.5 µM (≈ 0.725 µg/mL)
MBC (NRS194): 0.5 µM (≈ 0.725 µg/mL)
MIC (NRS194): 0.5 µM (≈ 0.725 µg/mL)
MIC (MRSA USA100): 1.4 µg/mL (≈ 0.966 µM)
MIC (MRSA USA200): 0.4 µg/mL (≈ 0.276 µM)
MBC (MRSA NRS384 (USA300)): 0.5 µM (≈ 0.725 µg/mL)
MIC (MRSA NRS384 (USA300)): 0.5 µM (≈ 0.725 µg/mL)
MBC (MRSA USA500 (NRS385)): 0.5 µM (≈ 0.725 µg/mL)
MIC (MRSA USA500 (NRS385)): 0.5 µM (≈ 0.725 µg/mL)
time to reduce the number of CFU by 3-log10 (MRSA (USA300)): > 12 hours
